Assay [1] concerns the target T1, SARM1 (Homo sapiens, UniProt Q6SZW1).
T1 construct: the inventor produces full-length SARM1 for NADase activity assays and for screening; His (C); made in house; host or cells: HEK293 cells (transient transfection; digitonin lysate supernatant, not purified further)
T1 sequence (Q6SZW1 28-724): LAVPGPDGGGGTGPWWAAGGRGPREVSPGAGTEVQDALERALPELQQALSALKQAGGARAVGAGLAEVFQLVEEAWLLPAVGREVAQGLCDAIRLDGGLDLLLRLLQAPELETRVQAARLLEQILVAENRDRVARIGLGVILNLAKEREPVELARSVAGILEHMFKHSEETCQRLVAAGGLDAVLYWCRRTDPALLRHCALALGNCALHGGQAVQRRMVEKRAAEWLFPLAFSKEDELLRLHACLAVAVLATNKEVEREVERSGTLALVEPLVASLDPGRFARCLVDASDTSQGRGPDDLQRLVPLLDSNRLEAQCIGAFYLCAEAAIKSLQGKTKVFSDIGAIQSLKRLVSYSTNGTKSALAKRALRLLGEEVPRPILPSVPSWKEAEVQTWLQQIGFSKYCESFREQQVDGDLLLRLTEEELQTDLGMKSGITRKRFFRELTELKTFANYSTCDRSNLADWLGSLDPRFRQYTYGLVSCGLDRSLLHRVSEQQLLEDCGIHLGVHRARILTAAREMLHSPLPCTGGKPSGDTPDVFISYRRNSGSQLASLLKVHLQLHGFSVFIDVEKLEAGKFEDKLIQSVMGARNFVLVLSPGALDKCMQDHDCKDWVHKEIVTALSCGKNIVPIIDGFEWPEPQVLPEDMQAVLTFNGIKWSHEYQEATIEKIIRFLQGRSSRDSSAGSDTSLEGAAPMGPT
The assay is described as follows: In vitro biochemical assay for inhibiting SARM1 enzymatic activity (PC6 fluorescence, NAD substrate, NMN activator). To be noted: 0.05 µg/mL SARM1, 50 µM NAD, 50 µM PC6, 50 µM NMN, 10 min pre-incubation, 30 min at room temperature. As to the method:
Compounds to be tested were stocked at 200 µM or 10 mM (in DMSO), and further diluted to the desired compound concentration for the in vitro SARM1 enzyme assay and inhibitor screening.
The gene sequence encoding SARM1 protein was amplified by PCR and the PCR amplification product was constructed into the pcDNA3.1-HIS-C plasmid. This construction was completed by YouBio Biological Technology (Hunan, China).
HEK293 cells were cultured in DMEM in a 10 cm dish. The next day, cells were transfected with 15 µg of the pcDNA3.1-SARM1-HIS-C expression plasmid.
Cells were harvested 48 hours after the transfection. The SARM1 protein expressed in cells was obtained through cell lysis by digitonin, which was used for in vitro activity assay. The specific process was as follows:
Cells were digested and detached from the dish using trypsin-EDTA, centrifuged at 1000 rpm for 5 minutes, washed once with PBS, then resuspended in PBS containing 100 µM digitonin at 0.6 mL PBS for the cells in 10 cm dish and lysed for 5 min. The cells were added with trypan blue and observed under a microscope. More than 90% of the cells were confirmed to be lysed. The cells were centrifuged at 5000 rpm for 10 min, and the supernatant containing SARM1 protein was collected.
The compound was added into a solution of 50 mM Tris-HCl (pH 7.5) containing 0.05 µg/mL SARM1 to achieve a concentration of 200 µM, and then serially diluted 6 times, where each dilution was carried out by taking half of the previous solution and adding an equal volume of 50 mM Tris-HCl (pH 7.5) containing 0.05 µg/mL SARM1, yielding a set of final concentrations of the compound of either 200, 100, 50, 25, 12.5, 6.25 and 3.125 µM, or 200, 50, 12.5, 3.125, 0.78, 0.195 and 0.049 µM. No inhibitor was added in the control group. All mixtures were incubated at room temperature for 10 min.
Subsequently, 50 µM NAD, 50 µM PC6 as substrate and 50 µM NMN as activator were added to the SARM1 protein incubated with the inhibitor and reacted for 30 min at room temperature. Wherein, the aforementioned concentrations of each component represent their respective final concentrations in the reaction system
During the reaction, the fluorescence spectrum dynamics of PC6 was detected by a microplate reader, with excitation and emission wavelengths set at 390 nm and 520 nm, respectively. The activity of the protein was expressed as the reaction rate and half maximal inhibitory concentration was calculated. The higher the reaction rate, the stronger the protein activity, and the lower the inhibitory efficiency of the compound.
Dose-response curves for inhibition of SARM1 enzymatic activity for NAD by the compounds were plotted using the above method.

Assay [2] deals with axons of dorsal root ganglia explants. The assay is described as follows: Wallerian degeneration assay of axon in mouse DRG explant culture. As to conditions: 10 µM compound, 2 h pretreatment, 24 h post axonal transection. It counts as cell-based, C57BL/6 mice. As to the method:
Dorsal root ganglia were dissected from two-month-old male C57BL/6 mice and placed into a 35-mm culture dish containing ice-cold HBSS buffer. Extra tissue surrounding each dorsal ganglion was removed using a scalpel, and the ganglia were cut into 2-3 explant pieces. These explants were seeded into wells of a 96-well plate pre-coated with 100 ng/mL Matrigel (Corning), added with 100 µL of DRG medium (Neurobasal medium (Gibco) containing 2% B-27 (Gibco), 1% GlutaMAX (Gibco) and 10 ng/mL NGF (MCE)), and cultured in a 37°C incubator for one week. The medium was half- replaced on the fourth day and the experiments were counted on the eighth day.
Refer to methods reported in literatures in the related art (Gerdts J, Sasaki Y, Vohra B, Marasa J, Milbrandt J. Image-based screening identifies novel roles for IkappaB kinase and glycogen synthase kinase 3 in axonal degeneration. J Biol Chem. 2011 Aug 12;286(32):28011-8) for the definition and measurement principle of the degeneration index of axon. In the present disclosure, the measurement method is detaild below.
0.1 µL of 10 mM compound to be tested was added to 100 µL of DRG medium to prepare a new medium containing 10 µM compound to be tested. The medium in the 96-well plate was removed and replaced with the new medium containing the compound to be tested. Explant pieces of dorsal ganglia were incubated with compounds in a 37°C incubator for 2 h of pre-protection. Following this 2-hour pretreatment, axons were transcted near the explants tissue piece using a glass microelectrode. At 0 h and 24 h post axonal transection, brightfield images of axons in the same region were captured using a microscope (Olympus) with 20× objective. Axonal integrity was assessed using an in-house developed script. The results were categorized based on the degree of protection into: (A) >50% and (B) 20-50%.

As to `O=C1C(Cc2ccc(Cl)cc2)CCCN1c1ccc(-c2ccncc2)nn1` (stereo not drawn) [Compound 53, 3-(4-chlorobenzyl)-1-(6-(pyridin-4-yl)pyridazin-3-yl)piperidin-2-one], the IC50 (commonly the concentration that inhibits the measured activity by half) in assay [1] is less than 1000 nM. Also, in assay [2], the “Degree of protection against axonal Wallerian Degeneration” value (“Degree of protection” for short) is “B ((B) 20-50%)”.

`O=C1C(Cc2ccccc2)CCN1c1ccc(-c2ccncc2)cc1` (stereo not drawn) [Compound 24, 3-benzyl-1-(4-(pyridin-4-yl)phenyl)pyrrolidin-2-one]: the IC50 in assay [1] fell in the range of 1000 to 10000 nM. Also, the “Degree of protection” value in assay [2] is on record as “B ((B) 20-50%)”.

Consider `O=C1C(Cc2ccc(Cl)cc2)CON1c1ccc(-c2ccncc2)cc1` (stereo not drawn) [Compound 3, 4-(4-chlorobenzyl)-2-(4-(pyridin-4-yl)phenyl)isoxazolidin-3-one], for which the IC50 in assay [1] was less than 1000 nM. Further, the “Degree of protection” value in assay [2] is listed as “B ((B) 20-50%)”.

`O=C1C(Cc2ccc(Cl)cc2)CCN1c1ccc(-c2ccncc2)nc1` (stereo not drawn) [Compound 7] showed an IC50 in assay [1] of 1000 to 10000 nM. The “Degree of protection” value in assay [2] was “A ((A) >50%)”.

With `O=C1C(Cc2ccc(F)cc2F)CCN1c1ccc(-c2ccncc2)nn1` (stereo not drawn) [Compound 70], the IC50 in assay [1] is less than 1000 nM. Also, the “Degree of protection” value in assay [2] is on record as “B ((B) 20-50%)”.

`O=C1C(Cc2ccc(Cl)cc2)CCN1c1ccc(-c2ccncc2)cn1` (stereo not drawn) [Compound 6, 1-([3,4'-bipyridin]-6-yl)-3-(4-chlorobenzyl)pyrrolin-2-one] returned an IC50 in assay [1] of 1000 to 10000 nM. For the same compound, the “Degree of protection” value in assay [2] is “A ((A) >50%)”.

As to `O=C1C(Cc2ccc(Cl)cc2)CCN1c1ccc(-c2ccncc2F)nn1` (stereo not drawn) [Compound 75, 3-(4-chlorobenzyl)-1-(6-(3-fluoropyridin-4-yl)pyridazin-3-yl)pyrrolidin-2-one], the IC50 in assay [1] is less than 1000 nM. Moreover, the “Degree of protection” value in assay [2] is “A ((A) >50%)”.

Take `O=C1C(Cc2ccc(C(F)(F)F)cc2)CCN1c1ccc(-c2ccncc2)nn1` (stereo not drawn) [Compound 60]: the IC50 in assay [1] was less than 1000 nM. For the same compound, in assay [2], the “Degree of protection” value is “B ((B) 20-50%)”.

On to `O=C1C(Cc2ccc(Cl)cc2F)CCN1c1ccc(-c2ccncc2)nn1` (stereo not drawn) [Compound 69], for which the IC50 in assay [1] is less than 1000 nM. Further, the “Degree of protection” value in assay [2] is recorded as “B ((B) 20-50%)”.

Compound `S=C1C(Cc2ccc(Cl)cc2)CCN1c1ccc(-c2ccncc2)nn1` (stereo not drawn) [Compound 58, 3-(4-chlorobenzyl)-1-(6-(pyridin-4-yl)pyridazin-3-yl)pyrrolidin-2-thione] returned an IC50 in assay [1] of less than 1000 nM. In addition, the “Degree of protection” value in assay [2] is on record as “B ((B) 20-50%)”.

`N#Cc1cc(-c2ccncc2)ccc1N1CCC(Cc2ccc(Cl)cc2)C1=O` (stereo not drawn) [Compound 21, 2-(3-(4-chlorobenzyl)-2-pyrrolidinone-1-yl)-5-(pyridin-4-yl)benzonitrile]: the IC50 in assay [1] was in the range of 10000 to 30000 nM. The “Degree of protection” value in assay [2] is listed as “B ((B) 20-50%)”.

For `O=C1C(Cc2ccc(Cl)cc2)CCN1c1ccc(-c2ccncc2Cl)cc1` (stereo not drawn) [Compound 34, 3-(4-chlorobenzyl)-1-(4-(3-chloropyridin-4-yl)phenyl)pyrrolidin-2-one], in assay [1], the IC50 was less than 1000 nM. The “Degree of protection” value in assay [2] is listed as “A ((A) >50%)”.

`O=C1C(Cc2ccc(Cl)c(F)c2)CCN1c1ccc(-c2ccncc2)nn1` (stereo not drawn) [Compound 62]: in assay [1], the IC50 was less than 1000 nM. Moreover, the “Degree of protection” value in assay [2] is given as “B ((B) 20-50%)”.

Consider `O=C1C(Cc2cc(F)cc(F)c2)CCN1c1ccc(-c2ccncc2)cc1` (stereo not drawn) [Compound 33, 3-(3,5-difluorobenzyl)-1-(4-(pyridin-4-yl)phenyl)pyrrolidin-2-one], for which, in assay [1], the IC50 was in the range of 1000 to 10000 nM. For the same compound, in assay [2], the “Degree of protection” value was “A ((A) >50%)”.

Regarding `O=C1C(Cc2ccc(Cl)s2)CCN1c1ccc(-c2ccncc2)nn1` (stereo not drawn) [Compound 66], the IC50 in assay [1] is less than 1000 nM. Also, in assay [2], the “Degree of protection” value was “A ((A) >50%)”.

The compound `O=C1C(Cc2ccc(Cl)cc2)CCN1c1ccc(-c2ccncc2Cl)nn1` (stereo not drawn) [Compound 76, 3-(4-chlorobenzyl)-1-(6-(3-chloropyridin-4-yl)pyridazin-3-yl)pyrrolidin-2-one] showed an IC50 in assay [1] of less than 1000 nM. The “Degree of protection” value in assay [2] is “B ((B) 20-50%)”.

Compound `O=C1N(c2ccc(-c3ccncc3)cc2)CCC1(O)Cc1ccc(F)c(F)c1` (stereo not drawn) [Compound 84, 3-(3,4-difluorobenzyl)-3-hydroxy-1-(4-(pyridin-4-yl)phenyl)pyrrolidin-2-one] came in with an IC50 in assay [1] of 1000 to 10000 nM. The “Degree of protection” value in assay [2] is on record as “B ((B) 20-50%)”.

Consider `O=C1C(Cc2ccc(F)c(F)c2)CCN1c1ccc(-c2ccncc2)cc1` (racemic) [Compound 30, 3-(3,4-difluorobenzyl)-1-(4-(pyridin-4-yl)phenyl)pyrrolidin-2-one], for which, in assay [1], the IC50 was less than 1000 nM. Besides, in assay [2], the “Degree of protection” value was “A ((A) >50%)”.

Consider `Cc1cnccc1-c1ccc(N2CCC(Cc3ccc(Cl)cc3)C2=O)cc1` (stereo not drawn) [Compound 14, 3-(4-chlorobenzyl)-1-(4-(3-methylpyridin-4-yl)phenyl)pyrrolidin-2-one], for which the IC50 in assay [1] was less than 1000 nM.

As for “3-(4-chloro-2-fluorobenzyl)-1-(4-(pyridin-4-yl)phenyl)pyrrolidin-2-one [Compound 42]”, the IC50 in assay [1] fell in the range of 1000 to 10000 nM.

`O=C1C(Cc2ccc(Cl)cc2)CCN1c1ccc(-c2ccncc2F)cc1` (stereo not drawn) [Compound 35, 3-(4-chlorobenzyl)-1-(4-(3-fluoropyridin-4-yl)phenyl)pyrrolidin-2-one] showed an IC50 in assay [1] of less than 1000 nM.

The compound `O=C1C(Cc2cc(F)cc(F)c2)CCN1c1ccc(-c2ccncc2)nn1` (stereo not drawn) [Compound 68] came in with an IC50 in assay [1] of less than 1000 nM.

Regarding `O=C1C(Cc2ccc(Cl)c(F)c2)CCN1c1ccc(-c2ccncc2)cc1` (stereo not drawn) [Compound 16, 3-(4-chloro-3-fluorobenzyl)-1-(4-(pyridin-4-yl)phenyl)pyrrolidin-2-one], in assay [1], the IC50 fell in the range of 1000 to 10000 nM.

Compound `NC(=O)c1cnccc1-c1ccc(N2CCC(Cc3ccc(Cl)cc3)C2=O)cc1` (stereo not drawn) [Compound 37] had an IC50 in assay [1] of 1000 to 10000 nM.

The record behind these values is patent EP4737448A1, “SARM1 ENZYME ACTIVITY INHIBITOR AND USE THEREOF” (Artivila (ShenZhen) Innovation Center, Ltd., priority 2023, dated 2025).
